Laboratory results taken from PubChem BioAssay (NCI).
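A five-concentration, 48-hour dose response in 96-well plates underlies each endpoint, interpolated linearly between surrounding concentrations. GI50 marks 50% less growth. TGI denotes the concentration required for complete inhibition of growth.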

Columns and labels:
Assay in all cases: growth of human tumour cells (NCI), 48 h
[1] = test system: M14 melanoma
[2] = test system: HCT-116 colon
[3] = test system: CCRF-CEM leukemia
[4] = test system: SNB-19 CNS
[5] = test system: 786-0 renal
[6] = test system: UACC-62 melanoma
[7] = test system: SK-MEL-28 melanoma
[8] = test system: SK-MEL-5 melanoma
[9] = test system: LOX IMVI melanoma
[10] = test system: HS 578T breast
[11] = test system: A549 NSCLC
[12] = test system: UO-31 renal
[13] = test system: OVCAR-8 ovarian
[14] = test system: SF-295 CNS
[15] = test system: RXF 393 renal
[16] = test system: HCC-2998 colon
[17] = test system: UACC-257 melanoma
[18] = test system: SF-268 CNS
[19] = test system: T-47D breast
[20] = test system: DU-145 prostate
[21] = test system: K-562 leukemia
[22] = test system: EKVX NSCLC
[23] = test system: HL-60(TB) leukemia
[24] = test system: SW-620 colon
[25] = test system: SNB-75 CNS
[26] = test system: NCI-H23 lung
[27] = test system: MCF7 breast
[28] = test system: TK-10 renal
[29] = test system: KM12 colon
[30] = test system: U251 CNS
[31] = test system: SK-OV-3 ovarian
[32] = test system: NCI/ADR-RES ovarian
[33] = test system: NCI-H460 lung
[34] = test system: SK-MEL-2 melanoma
[35] = test system: MALME-3M melanoma
[36] = test system: COLO 205 colon
[37] = test system: PC-3 prostate
[38] = test system: ACHN renal
[39] = test system: MOLT-4 leukemia
[40] = test system: HT29 colon
[41] = test system: SF-539 CNS
[42] = test system: HOP-62 NSCLC
[43] = test system: A498 renal
[44] = test system: OVCAR-4 ovarian
[45] = test system: SN12C renal
[46] = test system: CAKI-1 renal
[47] = test system: HCT-15 colon
[48] = test system: OVCAR-5 ovarian
[49] = test system: MDA-MB-231 breast
[50] = test system: NCI-H226 lung
[51] = test system: BT-549 breast
[52] = test system: RPMI-8226 leukemia
[53] = test system: HOP-92 NSCLC
[54] = test system: IGROV1 ovarian

## CCC1=Cc2c(OC)cccc2OC12C=Cc1c(OC)cccc1O2 (stereo not drawn)
[1]
  GI50: 0.57 µM
  TGI: 22 µM
[2]
  GI50: 0.436 µM
  TGI: > 100 µM
[3]
  GI50: 0.551 µM
  TGI: > 100 µM
[4]
  GI50: 0.646 µM
  TGI: > 100 µM
[5]
  GI50: 1.84 µM
  TGI: > 100 µM
[6]
  GI50: 0.53 µM
  TGI: > 100 µM
[7]
  GI50: > 100 µM
  TGI: > 100 µM
[8]
  GI50: 1.24 µM
  TGI: 8.33 µM
[9]
  GI50: 1.6 µM
  TGI: > 100 µM
[10]
  GI50: 2.55 µM
  TGI: > 100 µM
[11]
  GI50: 1.52 µM
  TGI: > 100 µM
[12]
  GI50: 2.4 µM
  TGI: > 100 µM
[13]
  GI50: 2.15 µM
  TGI: 6.51 µM
[14]
  GI50: 1.01 µM
  TGI: > 100 µM
[15]
  GI50: 0.99 µM
  TGI: 7.29 µM
[16]
  GI50: 2.58 µM
  TGI: 13.2 µM
[17]
  GI50: 7.48 µM
  TGI: > 100 µM
[18]
  GI50: 3.09 µM
  TGI: > 100 µM
[19]
  GI50: 16.3 µM
  TGI: > 100 µM
[20]
  GI50: 2.14 µM
  TGI: > 100 µM
[21]
  GI50: 0.463 µM
  TGI: > 100 µM
[22]
  GI50: 4.74 µM
  TGI: > 100 µM
[23]
  GI50: 0.507 µM
  TGI: > 100 µM
[24]
  GI50: 0.707 µM
  TGI: > 100 µM
[25]
  GI50: 1.31 µM
  TGI: 9.27 µM
[26]
  GI50: 2.93 µM
  TGI: > 100 µM
[27]
  GI50: 0.414 µM
  TGI: > 100 µM
[28]
  GI50: 24.5 µM
  TGI: > 100 µM
[29]
  GI50: 0.519 µM
  TGI: 32.4 µM
[30]
  GI50: 1.09 µM
  TGI: > 100 µM
[31]
  GI50: 2.93 µM
  TGI: > 100 µM
[32]
  GI50: 0.678 µM
  TGI: > 100 µM
[33]
  GI50: 2.57 µM
  TGI: 14.2 µM
[34]
  GI50: 1.22 µM
  TGI: 6.03 µM
[35]
  GI50: 3.79 µM
  TGI: > 100 µM
[36]
  GI50: 1.31 µM
  TGI: 3.7 µM
[37]
  GI50: 1.73 µM
  TGI: > 100 µM
[38]
  GI50: 2.85 µM
  TGI: > 100 µM
[39]
  GI50: 2.39 µM
  TGI: > 100 µM
[40]
  GI50: 0.508 µM
  TGI: 3.76 µM
[41]
  GI50: 1.57 µM
  TGI: 9.03 µM
[42]
  GI50: 1.66 µM
  TGI: > 100 µM
[43]
  GI50: 1.3 µM
  TGI: 4.17 µM
[44]
  GI50: 47.4 µM
  TGI: > 100 µM
[45]
  GI50: 0.94 µM
  TGI: > 100 µM
[46]
  GI50: 0.858 µM
  TGI: > 100 µM
[47]
  GI50: 0.469 µM
  TGI: > 100 µM
[48]
  GI50: 1.84 µM
  TGI: > 100 µM
[49]
  GI50: 2.03 µM
  TGI: 73.2 µM
[50]
  GI50: 2.84 µM
  TGI: 52.1 µM
[51]
  GI50: 1.61 µM
  TGI: 6.22 µM
[52]
  GI50: 2.87 µM
  TGI: > 100 µM
[53]
  GI50: 1 µM
  TGI: 8.79 µM
[54]
  GI50: 2.5 µM
  TGI: > 100 µM
